# From article PMC3363326 (ACS medicinal chemistry letters, 2012)
# Key:
# S. aureus CrtM [1] = target: T1, S. aureus CrtM (Staphylococcus aureus, UniProt A9JQL9); conditions: read-out: CrtM IC50; cited from earlier work
# [2] = test system: staphyloxanthin pigment formation; conditions: read-out: carotenoid pigment formation in cells IC50; cited from earlier work
# S. aureus CrtM [3] = target: T1, S. aureus CrtM; assay: S. aureus CrtM; type: biochemical
# S. aureus UPPS = target: T2, S. aureus UPPS (Staphylococcus aureus, UniProt P60477); assay: S. aureus UPPS inhibition; type: biochemical
# T2 sequence (P60477 1-256): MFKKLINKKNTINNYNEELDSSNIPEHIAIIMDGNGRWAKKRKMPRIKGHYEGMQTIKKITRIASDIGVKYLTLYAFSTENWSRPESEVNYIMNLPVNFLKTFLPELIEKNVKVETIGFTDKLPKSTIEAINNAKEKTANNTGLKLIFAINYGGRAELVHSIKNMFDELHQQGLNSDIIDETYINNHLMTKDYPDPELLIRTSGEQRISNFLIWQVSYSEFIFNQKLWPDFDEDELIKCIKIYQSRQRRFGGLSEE
# E. coli = E. coli cell growth inhibition; type: cell-based; conditions: DH5α, K12
# MCF-7 = assay: Toxicity against human cell line; type: cell-based
# [4] = test system: USA300 (MRSA) strain of S. aureus; assay: S. aureus cell growth inhibition; type: cell-based; conditions: Staphylococcus aureus, MRSA|USA300, read-out: MIC90 against S. aureus
# bacteria = conditions: background statement, no reference given; cited from earlier work
# FPPS = conditions: background statement, no reference given; cited from earlier work
# T1 sequence (A9JQL9 whole entry): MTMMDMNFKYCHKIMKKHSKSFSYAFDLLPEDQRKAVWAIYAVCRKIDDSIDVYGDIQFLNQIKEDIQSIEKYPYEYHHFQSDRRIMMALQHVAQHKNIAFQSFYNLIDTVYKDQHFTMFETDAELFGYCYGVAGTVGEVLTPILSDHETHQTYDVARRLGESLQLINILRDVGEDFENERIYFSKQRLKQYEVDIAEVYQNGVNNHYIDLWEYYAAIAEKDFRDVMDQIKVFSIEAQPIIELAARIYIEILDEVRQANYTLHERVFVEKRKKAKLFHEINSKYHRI
smiles,measurement,setting,value
O=P(O)(O)C(CCCc1cccc(Oc2ccccc2)c1)S(=O)(=O)O (stereo not shown) [Compound 3],IC50,S. aureus CrtM [1],~7900 nM
same,IC50,[2],~110 nM
CCCCCCCCCCOc1cccc(Cn2ccc(O)c(C(=O)O)c2=O)c1 [Compound 42],"CrtM inhibition, in words",S. aureus CrtM [3],no activity
CCCCCCCCCCOc1cccc(C(=O)/C=C(\O)C(=O)O)c1 [Compound 44],Ki,S. aureus UPPS,230 nM
CCCCCCCCOc1ccc(C(=O)/C=C(\O)C(=O)O)cc1 [Compound 45],activity against E. coli,E. coli,very little activity
same,activity against human cell lines,MCF-7,very little activity
same,Ki,S. aureus UPPS,670 nM
same,MIC90,[4],0.25 to 0.5 µg/mL
O=P(O)(O)C(O)(Cn1ccnc1)P(=O)(O)O [zoledronate],antibacterial activity,bacteria,little antibacterial activity
same,FPPS inhibition potency,FPPS,"potent, low nM inhibitors"
